Key:
CEC = test: Detection test with compound of formula V, normal cells CEC (Table II); format: cell-based, chicken; conditions: Gallus gallus, read-out: inhibition of the growth of the cells
Procedure: (§1) Petri dishes having a diameter of 10 cm are seeded with 10^6 cells to be studied. At the end of 4 hours after seeding, the compound of formula V (with R'=R"=CH3, R'"=H) is added in the form of an aqueous solution containing 0.14 M NaCl, the solution having a volume of 100 microliters. The effect of the compound of formula V is studied at various concentrations.

MRC5 [1] = test: Detection test with compound of formula V, normal cells MRC5 (Table II); format: cell-based; conditions: Homo sapiens, read-out: inhibition of the growth of the cells
Procedure: as §1

NRK [2] = test: Detection test with compound of formula V, benign transformed cells NRK (Table II); format: cell-based; conditions: Rattus norvegicus, read-out: inhibition of the growth of the cells
Procedure: as §1

NRK B77 [3] = test: Detection test with compound of formula V, malignant cells NRK B77 (Table II); format: cell-based; conditions: Rattus norvegicus, read-out: inhibition of the growth of the cells
Procedure: as §1

HeLa [4] = test: Detection test with compound of formula V, malignant cells HeLa (Table II); format: cell-based; conditions: Homo sapiens, read-out: inhibition of the growth of the cells
Procedure: as §1

[5] = target: T1, RALD (aldehyde reductase) (Rattus norvegicus, UniProt P51635); test: In vitro test: inhibition of RALD in cellular homogenates of NRK B77 cells; format: biochemical
T1 construct: NADPH, malonic dialdehyde substrate, pH 6
T1 sequence (P51635 1-325): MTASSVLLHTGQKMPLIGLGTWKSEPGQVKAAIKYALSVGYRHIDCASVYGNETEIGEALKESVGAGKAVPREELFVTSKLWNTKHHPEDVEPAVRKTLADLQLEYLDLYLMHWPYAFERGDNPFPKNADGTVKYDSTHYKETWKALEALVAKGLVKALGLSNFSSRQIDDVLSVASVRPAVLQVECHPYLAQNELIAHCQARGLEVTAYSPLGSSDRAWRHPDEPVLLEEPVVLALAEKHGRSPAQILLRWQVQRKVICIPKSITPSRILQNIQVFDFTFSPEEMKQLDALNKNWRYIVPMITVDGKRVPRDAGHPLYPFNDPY
Procedure: Cellular homogenates of NRK B77 cells which contain about 500 micrograms of the enzyme are prepared and incubated with the compound of Example 1 at doses of 0.2 mM, 0.8 mM and 1 mM. The incubation lasts for 15, 30 or 60 minutes.
After incubation, an aliquot is added to the substrate which is 2 mM malonic dialdehyde dissolved in a phosphate buffer of pH 6 containing 0.35 mM of NADPH (co-factor of the enzyme).
The optical density is measured every minute, for 5 minutes, at 340 nm.
The transformation of NADPH into […] causes a linear reduction of the optical density. The inhibiting effect is evaluated by the difference between the variation of the optical density in the controls (without inhibitor) and the variation of the optical density with the inhibitor.

MRC5 [6] = test: Growth inhibition, normal diploid cells MRC5 (Table 1); format: cell-based; conditions: Homo sapiens, 96 h, 4 days, read-out: Cellular growth, percentage of inhibition
Procedure: (§2) The tests are carried out in the following manner:
(§3) A culture medium, constituted by the Eagle minimum medium to which has been added 10% of calf serum, is seed with 2×10^5 cells being studied.
(§4) After 4 days of culture, the inhibition relative to non-treated control cultures is measured.

NRK [7] = test: Growth inhibition, established line NRK (Table 1); format: cell-based, rat; conditions: 4 days
Procedure: as §2, §3, §4

HeLa [8] = test: Growth inhibition, transformed cells HeLa (Table 1); format: cell-based; conditions: Homo sapiens, 96 h, 4 days, read-out: Cellular growth, percentage of inhibition
Procedure: as §2, §3, §4

HEp2 = test: Growth inhibition, transformed cells HEp2 (Table 1); format: cell-based, human; conditions: 4 days
Procedure: as §2, §3, §4

293 = test: Growth inhibition, transformed cells 293 (Table 1); format: cell-based, human; conditions: 4 days
Procedure: as §2, §3, §4

NRK B77 [9] = test: Growth inhibition, transformed cells NRK B77 (Table 1); format: cell-based; conditions: Rattus norvegicus, 96 h, 4 days, read-out: Cellular growth, percentage of inhibition
Procedure: as §2, §3, §4

Toxicity on mice = format: in vivo; conditions: intraperitoneal
Procedure: The study of the toxicity has been carried out on mice. The product of Example 1 is administered intraperitoneally at a dosage of 3 g/kg body weight daily for 8 days.

Question: Which results are given for `CC(C)(N)C#CC=O`?
Answer: inhibition at 5 µM (CEC; 0.5 × 10^-5 M): 0%; inhibition at 100 µM (CEC; 1 × 10^-4 M): 0%; inhibition at 200 µM (CEC; 2 × 10^-4 M): 0%; inhibition at 400 µM (CEC; 4 × 10^-4 M): 10%; inhibition at 600 µM (CEC; 6 × 10^-4 M): 12%; inhibition at 5 µM (MRC5 [1]; MRC5, 0.5 × 10^-5 M): 0%; inhibition at 100 µM (MRC5 [1]; MRC5, 1 × 10^-4 M): 0%; inhibition at 200 µM (MRC5 [1]; MRC5, 2 × 10^-4 M): 0%; inhibition at 400 µM (MRC5 [1]; MRC5, 4 × 10^-4 M): 0%; inhibition at 600 µM (MRC5 [1]; MRC5, 6 × 10^-4 M): 18%; inhibition at 5 µM (NRK [2]; 0.5 × 10^-5 M): 0%; inhibition at 100 µM (NRK [2]; 1 × 10^-4 M): 0%; inhibition at 200 µM (NRK [2]; 2 × 10^-4 M): 0%; inhibition at 400 µM (NRK [2]; 4 × 10^-4 M): 0%; inhibition at 600 µM (NRK [2]; 6 × 10^-4 M): 0%; inhibition at 5 µM (NRK B77 [3]; NRK B77, 0.5 × 10^-5 M): 0%; inhibition at 100 µM (NRK B77 [3]; NRK B77, 1 × 10^-4 M): 16%; inhibition at 200 µM (NRK B77 [3]; NRK B77, 2 × 10^-4 M): 31%; inhibition at 400 µM (NRK B77 [3]; NRK B77, 4 × 10^-4 M): 57%; inhibition at 600 µM (NRK B77 [3]; NRK B77, 6 × 10^-4 M): 79%; inhibition at 5 µM (HeLa [4]; 0.5 × 10^-5 M): 0%; inhibition at 100 µM (HeLa [4]; 1 × 10^-4 M): 18%; inhibition at 200 µM (HeLa [4]; 2 × 10^-4 M): 36%; inhibition at 400 µM (HeLa [4]; 4 × 10^-4 M): 78%; inhibition at 600 µM (HeLa [4]; 6 × 10^-4 M): 91%

Question: For `CC(C)(N)C#CC1(C)CO1` (stereo not shown) [Example 1, 5,6-epoxy-2,5-dimethyl-3-hexyne-2-amine], which “inhibition of the RALD activity” value ([5]; 1 mM, 30 minutes) is on record?
Answer: total inhibition

Question: What about the remaining activity at 800 µM ([5]; 0.5 h, 0.8 mM, 30 minutes) of the same compound?
Answer: ~10%

Question: And the remaining activity at 200 µM ([5]; 1 h, 0.2 mM, 60 minutes)?
Answer: < 25%

Question: And the inhibition at 100 µM (MRC5 [6]; MRC5, 1 × 10^-4 M)?
Answer: 0%

Question: And the inhibition at 200 µM (MRC5 [6]; MRC5, 2 × 10^-4 M)?
Answer: 0%

Question: And the inhibition at 400 µM (MRC5 [6]; MRC5, 4 × 10^-4 M)?
Answer: 0%

Question: And the inhibition at 50 µM (MRC5 [6]; MRC5, 5 × 10^-5 M)?
Answer: 0%

Question: What about the inhibition at 600 µM (MRC5 [6]; MRC5, 6 × 10^-4 M) of the same compound?
Answer: 0%

Question: What about the “Cellular growth, percentage of inhibition” value (NRK [7]; 6 × 10^-4 M) of the same compound?
Answer: Dead

Question: And the inhibition at 200 µM (NRK [7]; Rattus norvegicus, 96 h, 2 × 10^-4 M, read-out: Cellular growth, percentage of inhibition)?
Answer: 30%

Question: And the inhibition at 400 µM (NRK [7]; Rattus norvegicus, 96 h, 4 × 10^-4 M, read-out: Cellular growth, percentage of inhibition)?
Answer: 60%

Question: What about the inhibition at 100 µM (HeLa [8]; 1 × 10^-4 M) of the same compound?
Answer: 0%

Question: What about the inhibition at 200 µM (HeLa [8]; 2 × 10^-4 M) of the same compound?
Answer: 20%

Question: And the inhibition at 400 µM (HeLa [8]; 4 × 10^-4 M)?
Answer: 80%

Question: And the inhibition at 50 µM (HeLa [8]; 5 × 10^-5 M)?
Answer: 0%

Question: What about the inhibition at 600 µM (HeLa [8]; 6 × 10^-4 M) of the same compound?
Answer: 90%

Question: What about the “Cellular growth, percentage of inhibition” value (HEp2; HEp2, 6 × 10^-4 M) of the same compound?
Answer: Dead

Question: And the inhibition at 100 µM (HEp2; Homo sapiens, HEp-2, 96 h, HEp2, 1 × 10^-4 M, read-out: Cellular growth, percentage of inhibition)?
Answer: 0%

Question: And the inhibition at 200 µM (HEp2; Homo sapiens, HEp-2, 96 h, HEp2, 2 × 10^-4 M, read-out: Cellular growth, percentage of inhibition)?
Answer: 20%

Question: And the inhibition at 400 µM (HEp2; Homo sapiens, HEp-2, 96 h, HEp2, 4 × 10^-4 M, read-out: Cellular growth, percentage of inhibition)?
Answer: 80%

Question: And the inhibition at 50 µM (HEp2; Homo sapiens, HEp-2, 96 h, HEp2, 5 × 10^-5 M, read-out: Cellular growth, percentage of inhibition)?
Answer: 0%

Question: What about the “Cellular growth, percentage of inhibition” value (293; 293, 1 × 10^-4 M) of the same compound?
Answer: 50%

Question: What about the “Cellular growth, percentage of inhibition” value (293; 293, 2 × 10^-4 M) of the same compound?
Answer: 90%

Question: And the “Cellular growth, percentage of inhibition” value (293; 293, 4 × 10^-4 M)?
Answer: Dead

Question: What about the “Cellular growth, percentage of inhibition” value (293; 293, 5 × 10^-5 M) of the same compound?
Answer: 20%

Question: And the “Cellular growth, percentage of inhibition” value (293; 293, 6 × 10^-4 M)?
Answer: Dead

Question: And the inhibition at 100 µM (NRK B77 [9]; NRK B77, 1 × 10^-4 M)?
Answer: 0%

Question: And the inhibition at 200 µM (NRK B77 [9]; NRK B77, 2 × 10^-4 M)?
Answer: 0%

Question: What about the inhibition at 400 µM (NRK B77 [9]; NRK B77, 4 × 10^-4 M) of the same compound?
Answer: 50%

Question: What about the inhibition at 50 µM (NRK B77 [9]; NRK B77, 5 × 10^-5 M) of the same compound?
Answer: 0%

Question: And the inhibition at 600 µM (NRK B77 [9]; NRK B77, 6 × 10^-4 M)?
Answer: 60%

Question: And the apparent toxicity (Toxicity on mice; 3 g/kg daily for 8 days)?
Answer: No apparent toxicity

Question: And the LD50 (Toxicity on mice; mouse, in vivo, ip, read-out: DL50 (the source's name))?
Answer: > 3000 mg/kg

— patent US4767872A, “Epoxide derivatives” (Centre National de la Recherche Scientifique (CNRS), priority 1985, dated 1988)
